Laboratory results taken from patent publication US7078552B2, “Combretastatin A-1 phosphate and combretastatin B-1 phosphate prodrugs” (Arizona Board of Regents, priority 2000, dated 2006).
In brackets after ≈: the same amount, converted by molar mass. Read-outs that look alike come from different tables or passages of the source.

Experiments:
[1] = system: P388 lymphocytic leukemia cell line; test: Murine P388 lymphocytic leukemia in vitro cell growth inhibition; assay type: cell-based
[2] = system: P388 lymphocytic leukemia cell line; conditions: literature (Pettit et al, 1987, 1989); cited from earlier work
[3] = system: tubulin (microtubule assembly); conditions: literature (Pettit et al, 1987, 1989); read-out: IC50 inhibiting microtubule assembly in vitro; cited from earlier work
[4] = system: BXPC-3; test: Human cancer cell line growth inhibition, Pancreas-a BXPC-3; assay type: cell-based; conditions: for GI50: Homo sapiens
[5] = system: OVCAR-3; test: Human cancer cell line growth inhibition, Ovarian OVCAR-3; assay type: cell-based; conditions: for GI50: Homo sapiens
[6] = system: SF-295; test: Human cancer cell line growth inhibition, CNS SF-295; assay type: cell-based; conditions: for GI50: Homo sapiens
[7] = system: NCl-H460; test: Human cancer cell line growth inhibition, Lung-NSC NCl-H460; assay type: cell-based; conditions: for GI50: Homo sapiens
[8] = system: KM20L2; test: Human cancer cell line growth inhibition, Colon KM20L2; assay type: cell-based; conditions: for GI50: Homo sapiens, KM-20L2
[9] = system: DU-I45; test: Human cancer cell line growth inhibition, Prostate DU-I45; assay type: cell-based; conditions: for GI50: Homo sapiens
[10] = 1 mL distilled water at 25° C., Table I
[11] = physchem; conditions: water
[12] = system: P388 and human tumor cell lines; test: Cytotoxicity versus the P388 and human tumor cell lines, comparative statements

Compound | Leukemia P388 ED50 ([1]; P388 cell line) | Pancreas-a BXPC-3 GI50 [4] | Ovarian OVCAR-3 GI50 [5] | CNS SF-295 GI50 [6] | Lung-NSC NCl-H460 GI50 [7] | Colon KM20L2 GI50 [8] | Prostate DU-I45 GI50 [9] | further results
COc1ccc(CCc2cc(OC)c(OC)c(OC)c2)c(O)c1O [Compound 2, combretastatin B-1] | – | – | – | – | – | – | – | Leukemia P388 ED50 [1]: 1.7 µg/mL; ED50 against murine P388 lymphocytic leukemia in vitro system [2]: 1.7 µg/mL (≈ 5080 nM); IC50 [3]: 3000 nM
COc1ccc(/C=C\c2cc(OC)c(OC)c(OC)c2)cc1O [Compound 3a, combretastatin A-4, reference compound] | 0.0003 µg/mL | – | – | – | – | – | – | GI50 [4]: 0.39 µg/mL (≈ 1230 nM); GI50 [5]: < 0.001 µg/mL; GI50 [6]: < 0.001 µg/mL; GI50 [7]: 0.0006 µg/mL (≈ 1.9 nM); GI50 [8]: 0.061 µg/mL (≈ 193 nM); GI50 [9]: 0.0008 µg/mL (≈ 2.53 nM); ED50 against murine P388 lymphocytic leukemia in vitro system [2]: ~0.0009 µg/mL (≈ 2.84 nM); IC50 [3]: […]
COc1cc(/C=C\c2ccc(OC)c(OP(=O)(O)O)c2OP(=O)(O)O)cc(OC)c1OC [Compound 4, Sodium Combretastatin A-1 2′,3′-O-diphosphate] | <0.0100 µg/mL | – | – | – | – | – | – | GI50 [4]: 1.5 µg/mL; GI50 [5]: 0.024 µg/mL; GI50 [6]: 0.036 µg/mL; GI50 [7]: 0.038 µg/mL; GI50 [8]: 0.53 µg/mL; GI50 [9]: 0.034 µg/mL; solubility ([10]; second part (column repeated)): 120 mg/mL; solubility ([11]; 25 °C): 120 mg/mL; solubility [11]: 120 mg/mL
COc1cc(CCc2ccc(OC)c(OP(=O)(O)O)c2OP(=O)(O)O)cc(OC)c1OC [Compound 5, Sodium Combretastatin B-1 2′,3′-O-Diphosphate] | 0.335 µg/mL | – | – | – | – | – | – | GI50 [4]: > 10 µg/mL; GI50 [5]: 2 µg/mL; GI50 [6]: 2.3 µg/mL; GI50 [7]: 3.3 µg/mL; GI50 [8]: > 10 µg/mL; GI50 [9]: 2.7 µg/mL; solubility ([11]; 25 °C): > 50 mg/mL; cytotoxicity / antineoplastic activity compared to prodrug 4 [12]: reduced antineoplastic activity
COc1cc(/C=C\c2ccc(OC)c(OP(=O)([O-])[O-])c2OP(=O)([O-])[O-])cc(OC)c1OC.[Li+].[Li+].[Li+].[Li+] [Compound 11a, Lithium Combretastatin A-1 2′,3′-O-diphosphate] | <0.0100 µg/mL | 0.33 µg/mL | 0.028 µg/mL | 0.042 µg/mL | 0.040 µg/mL | 0.37 µg/mL | 0.031 µg/mL | –
COc1cc(/C=C\c2ccc(OC)c(OP(=O)([O-])[O-])c2OP(=O)([O-])[O-])cc(OC)c1OC.[K+].[K+].[K+].[K+] [Compound 11b, Potassium Combretastatin A-1 2′,3′-O-diphosphate] | 0.0170 µg/mL | 0.38 µg/mL | 0.023 µg/mL | 0.035 µg/mL | 0.036 µg/mL | 0.30 µg/mL | 0.024 µg/mL | solubility ([10]; first part): >90 mg/mL; solubility ([10]; second part (column repeated)): >90 mg/mL
COc1cc(/C=C\c2ccc(OC)c(OP(=O)([O-])[O-])c2OP(=O)([O-])[O-])cc(OC)c1OC.[Cs+].[Cs+].[Cs+].[Cs+] [Compound 11c, Cesium Combretastatin A-1 2′,3′-O-diphosphate] | 0.0365 µg/mL | 0.31 µg/mL | 0.024 µg/mL | 0.038 µg/mL | 0.040 µg/mL | 0.28 µg/mL | 0.024 µg/mL | –
COc1cc(/C=C\c2ccc(OC)c(OP(=O)([O-])[O-])c2OP(=O)([O-])[O-])cc(OC)c1OC.[Mn+2].[Mn+2] [Compound 11f, Manganese Combretastatin A-1 2′, 3′-O-diphosphate] | 0.715 µg/mL | 4.7 µg/mL | 0.044 µg/mL | 0.28 µg/mL | 0.19 µg/mL | 6.1 µg/mL | 2.4 µg/mL | –
COc1cc(/C=C\c2ccc(OC)c(OP(=O)([O-])[O-])c2OP(=O)([O-])[O-])cc(OC)c1OC.[Zn+2].[Zn+2] [Compound 11g, Dizinc Combretastatin A-1 2′,3′-O-diphosphate] | 0.0394 µg/mL | 0.36 µg/mL | 0.027 µg/mL | 0.033 µg/mL | 0.032 µg/mL | 0.32 µg/mL | 0.025 µg/mL | –
Calcium Combretastatin A-1 2′,3′-O-diphosphate [Compound 11e] | 0.0102 µg/mL | 0.28 µg/mL | 0.024 µg/mL | 0.041 µg/mL | 0.037 µg/mL | 0.34 µg/mL | 0.024 µg/mL | –
Magnesium Combretastatin A-1 2′,3′-O-diphosphate [Compound 11d] | 0.0245 µg/mL | 0.44 µg/mL | 0.031 µg/mL | 0.039 µg/mL | 0.039 µg/mL | 0.47 µg/mL | 0.032 µg/mL | –
Morpholine Combretastatin A-1 2′,3′-O-diphosphate [Compound 11h] | 0.002 µg/mL | 0.35 µg/mL | 0.043 µg/mL | 0.042 µg/mL | 0.046 µg/mL | 0.26 µg/mL | 0.039 µg/mL | –
Nicotinamide Combretastatin A-1 2′,3′-O-diphosphate [Compound 11j] | 0.005 µg/mL | 0.42 µg/mL | 0.054 µg/mL | 0.053 µg/mL | 0.15 µg/mL | 0.53 µg/mL | 0.046 µg/mL | –
Papaverine Combretastatin A-1 2′,3′-O-diphosphate [Compound 11n] | 0.05 µg/mL | 0.38 µg/mL | 0.052 µg/mL | 0.063 µg/mL | 0.27 µg/mL | 0.33 µg/mL | 0.054 µg/mL | –
Piperazine Combretastatin in A-1 2′,3′-O-diphosphate [Compound 11i] | 0.002 µg/mL | 0.35 µg/mL | 0.046 µg/mL | 0.039 µg/mL | 0.037 µg/mL | 0.20 µg/mL | 0.036 µg/mL | –
Quinidine Combretastatin A-1 2′,3′-O-diphosphate [Compound 11l] | 0.004 µg/mL | 0.55 µg/mL | 0.043 µg/mL | 0.056 µg/mL | 0.37 µg/mL | 0.84 µg/mL | 0.10 µg/mL | –
Quinine Combretastatin A-1 2′,3′-O-dephosphate [Compound 11k] | 0.004 µg/mL | 0.47 µg/mL | 0.054 µg/mL | 0.044 µg/mL | 0.34 µg/mL | 0.40 µg/mL | 0.050 µg/mL | –
